From article PMC11359702, “Synthesis and Biochemical Evaluation of Ethanoanthracenes and Related Compounds: Antiproliferative and Pro-Apoptotic Effects in Chronic Lymphocytic Leukemia (CLL)” (Pharmaceuticals, 2024)
Like-named read-outs stand apart in the source and are kept apart here.

How the values were obtained:
[1] = system: HG-3 and PGA-1 cell lines; assay: alamarBlue cell viability assay, mean of both CLL cell lines; format: cell-based, human; conditions: Homo sapiens, CLL cell; mean of HG-3 and PGA-1
PGA-1 cells = assay: alamarBlue cell viability assay; conditions: Homo sapiens, 24 h; for IC50: read-out: PGA-1 IC50
breast cancer cell lines = assay: NCI-60 five-dose assay, breast cancer cell lines; format: cell-based, human; conditions: Homo sapiens; range over breast cancer cell lines
Experimental: (§1) A number of our most promising compounds identified through preliminary cell viability testing (23c, 23d, 23f, 23h, 23l, 23m, 23n, 23o, 24f, 24l, 25n and 26n) were selected for NCI drug screening in the 60-cell-line panel. The panel includes nine subcategories based on cancer tissue types, which include leukemia, ovarian, central nervous system, breast, lung, prostate, skin, renal and colon cancer. The compounds were initially assessed in a one-dose assay at a fixed treatment concentration of 10 µM. The compounds selected for further investigation were progressed to a five-dose assay across the concentration ranges of 0.01, 0.1, 1, 10 and 100 µM [72]. The endpoints assessed in the screening protocol were GI50, TGI and LC50 [72].

leukemia cell panel = assay: NCI-60 five-dose assay, leukemia cell panel mean; format: cell-based, human; conditions: Homo sapiens; mean across the six leukemia cell lines
M14 = assay: NCI-60 five-dose assay; format: cell-based, human; conditions: Homo sapiens
Experimental: as §1

SK-MEL-5 = assay: NCI-60 five-dose assay; format: cell-based, human; conditions: Homo sapiens
Experimental: as §1

UACC-257 = assay: NCI-60 five-dose assay; format: cell-based, human; conditions: Homo sapiens
Experimental: as §1

NCI-H552 = assay: NCI-60 five-dose assay; format: cell-based, human; conditions: Homo sapiens
Experimental: as §1

A498 = assay: NCI-60 five-dose assay; format: cell-based, human; conditions: Homo sapiens
Experimental: as §1

MDA-MB-231/ATCC = assay: NCI-60 five-dose assay; format: cell-based, human; conditions: Homo sapiens
Experimental: as §1

HOP-62 = assay: NCI-60 five-dose assay; format: cell-based, human; conditions: Homo sapiens
Experimental: as §1

SK-MEL-28 = assay: NCI-60 five-dose assay; format: cell-based, human; conditions: Homo sapiens
Experimental: as §1

CAKI-1 = assay: NCI-60 five-dose assay; format: cell-based, human; conditions: Homo sapiens
Experimental: as §1

HCT-15 = assay: NCI-60 five-dose assay; format: cell-based, human; conditions: Homo sapiens
Experimental: as §1

SNB-19 = assay: NCI-60 five-dose assay; format: cell-based, human; conditions: Homo sapiens
Experimental: as §1

MDA-MB-435 = assay: NCI-60 five-dose assay; format: cell-based, human; conditions: Homo sapiens
Experimental: as §1

A549/ATCC = assay: NCI-60 five-dose assay; format: cell-based, human; conditions: Homo sapiens
Experimental: as §1

SN12C = assay: NCI-60 five-dose assay; format: cell-based, human; conditions: Homo sapiens
Experimental: as §1

NCI-H226 = assay: NCI-60 five-dose assay; format: cell-based, human; conditions: Homo sapiens
Experimental: as §1

SK-MEL-2 = assay: NCI-60 five-dose assay; format: cell-based, human; conditions: Homo sapiens
Experimental: as §1

HCT-2998 = assay: NCI-60 five-dose assay; format: cell-based, human; conditions: Homo sapiens
Experimental: as §1

LOX IMV1 = assay: NCI-60 five-dose assay; format: cell-based, human; conditions: Homo sapiens
Experimental: as §1

U251 = assay: NCI-60 five-dose assay; format: cell-based, human; conditions: Homo sapiens, U-251
Experimental: as §1

HS 578T = assay: NCI-60 five-dose assay; format: cell-based, human; conditions: Homo sapiens
Experimental: as §1

IGROV1 = assay: NCI-60 five-dose assay; format: cell-based, human; conditions: Homo sapiens, IGROV-1
Experimental: as §1

NCI-H332M = assay: NCI-60 five-dose assay; format: cell-based, human; conditions: Homo sapiens
Experimental: as §1

HCT-116 = assay: NCI-60 five-dose assay; format: cell-based, human; conditions: Homo sapiens
Experimental: as §1

TK-10 = assay: NCI-60 five-dose assay; format: cell-based, human; conditions: Homo sapiens
Experimental: as §1

SK-OV-3 = assay: NCI-60 five-dose assay; format: cell-based, human; conditions: Homo sapiens
Experimental: as §1

SF539 = assay: NCI-60 five-dose assay; format: cell-based, human; conditions: Homo sapiens, SF-539
Experimental: as §1

EKVX = assay: NCI-60 five-dose assay; format: cell-based, human; conditions: Homo sapiens
Experimental: as §1

OVCAR-3 = assay: NCI-60 five-dose assay; format: cell-based, human; conditions: Homo sapiens
Experimental: as §1

NCI/ADR-RES = assay: NCI-60 five-dose assay; format: cell-based, human; conditions: Homo sapiens
Experimental: as §1

COLO205 = assay: NCI-60 five-dose assay; format: cell-based, human; conditions: Homo sapiens, COLO 205
Experimental: as §1

OVCAR-4 = assay: NCI-60 five-dose assay; format: cell-based, human; conditions: Homo sapiens
Experimental: as §1

HT29 = assay: NCI-60 five-dose assay; format: cell-based, human
Experimental: as §1

DU-145 = assay: NCI-60 five-dose assay; format: cell-based, human; conditions: Homo sapiens
Experimental: as §1

KM12 = assay: NCI-60 five-dose assay; format: cell-based, human; conditions: Homo sapiens
Experimental: as §1

HOP-92 = assay: NCI-60 five-dose assay; format: cell-based, human; conditions: Homo sapiens
Experimental: as §1

NCI-H460 = assay: NCI-60 five-dose assay; format: cell-based, human; conditions: Homo sapiens
Experimental: as §1

PC-3 = assay: NCI-60 five-dose assay; format: cell-based, human; conditions: Homo sapiens
Experimental: as §1

MALME-3M = assay: NCI-60 five-dose assay; format: cell-based, human; conditions: Homo sapiens, Malme-3M
Experimental: as §1

UACC-62 = assay: NCI-60 five-dose assay; format: cell-based, human; conditions: Homo sapiens
Experimental: as §1

RXF 393 = assay: NCI-60 five-dose assay; format: cell-based, human; conditions: Homo sapiens
Experimental: as §1

SW-620 = assay: NCI-60 five-dose assay; format: cell-based, human; conditions: Homo sapiens
Experimental: as §1

K-562 = assay: NCI-60 five-dose assay; format: cell-based, human
melanoma cell lines = assay: NCI-60 five-dose assay, melanoma cell lines; format: cell-based, human; conditions: Homo sapiens; range over melanoma cell lines
Experimental: as §1

[2] = system: NCI 60 cancer cell line panel; assay: NCI-60 five-dose assay, full-panel means; format: cell-based; conditions: Homo sapiens
Experimental: as §1

Q: With `O=C(C=CC12c3ccccc3C(c3ccccc31)C1C(=O)NC(=O)C12)c1ccc(Br)cc1` (centres unmarked) [Compound 23a, 9-(E)-3-(4-Bromophenyl)-3-oxoprop-1-en-1-yl)-9,10-dihydro-9,10-[3,4]epipyrroloanthracene-12,14-dione] as the compound, how does the IC50 [1] read?
A: 2330 nM

Q: What about the IC50 (PGA-1 cells) of the same compound?
A: 1970 nM

Q: What about the viability at 10 µM (PGA-1 cells; read-out: cell viability) of the same compound?
A: 3%

Q: How did the GI50 (breast cancer cell lines) turn out when `O=C(C=CC12c3ccccc3C(c3ccccc31)C1C(=O)N(c3ccc(Cl)cc3)C(=O)C12)c1ccccn1` (centres unmarked) [Compound 25n, (E)-13-(4-Chlorophenyl)-9-(3-oxo-3-(pyridin-2-yl)prop-1-en-1-yl)-9,10-dihydro-9,10-[3,4]epipyrroloanthracene-12,14-dione] was run?
A: 295 to 627 nM

Q: What about the IC50 [1] of the same compound?
A: 1090 nM

Q: And the GI50 (leukemia cell panel)?
A: 290 nM

Q: What about the GI50 (M14) of the same compound?
A: 344 nM

Q: What about the GI50 (SK-MEL-5) of the same compound?
A: 1080 nM

Q: What about the GI50 (UACC-257) of the same compound?
A: 496 nM

Q: What about the GI50 (NCI-H552) of the same compound?
A: 331 nM

Q: And the GI50 (A498)?
A: 539 nM

Q: And the GI50 (MDA-MB-231/ATCC)?
A: 463 nM

Q: And the GI50 (HOP-62)?
A: 587 nM

Q: What about the GI50 (SK-MEL-28) of the same compound?
A: 455 nM

Q: And the GI50 (CAKI-1)?
A: 1070 nM

Q: What about the GI50 (HCT-15) of the same compound?
A: 213 nM

Q: What about the GI50 (SNB-19) of the same compound?
A: 425 nM

Q: And the GI50 (MDA-MB-435)?
A: 298 nM

Q: What about the GI50 (A549/ATCC) of the same compound?
A: 390 nM

Q: What about the GI50 (SN12C) of the same compound?
A: 415 nM

Q: What about the GI50 (NCI-H226) of the same compound?
A: 293 nM

Q: What about the GI50 (SK-MEL-2) of the same compound?
A: 670 nM

Q: And the GI50 (HCT-2998)?
A: 335 nM

Q: And the GI50 (LOX IMV1)?
A: 194 nM

Q: What about the GI50 (U251) of the same compound?
A: 358 nM

Q: And the GI50 (HS 578T)?
A: 458 nM

Q: And the GI50 (IGROV1)?
A: 236 nM

Q: What about the GI50 (NCI-H332M) of the same compound?
A: 821 nM

Q: What about the GI50 (HCT-116) of the same compound?
A: 212 nM

Q: What about the GI50 (TK-10) of the same compound?
A: 1460 nM

Q: And the GI50 (SK-OV-3)?
A: 3300 nM

Q: What about the GI50 (SF539) of the same compound?
A: 316 nM

Q: What about the GI50 (EKVX) of the same compound?
A: 491 nM

Q: What about the GI50 (OVCAR-3) of the same compound?
A: 222 nM

Q: What about the GI50 (NCI/ADR-RES) of the same compound?
A: 356 nM

Q: And the GI50 (COLO205)?
A: 1160 nM

Q: What about the GI50 (OVCAR-4) of the same compound?
A: 764 nM

Q: And the GI50 (HT29; Homo sapiens, HT-29, HT29)?
A: 335 nM

Q: What about the IC50 (HT29; chemoresistant HT-29 human colorectal adenocarcinoma cell line) of the same compound?
A: 335 nM

Q: What about the GI50 (DU-145) of the same compound?
A: 410 nM

Q: What about the GI50 (KM12) of the same compound?
A: 344 nM

Q: What about the GI50 (HOP-92) of the same compound?
A: 1190 nM

Q: And the GI50 (NCI-H460)?
A: 241 nM

Q: And the GI50 (PC-3)?
A: 436 nM

Q: And the GI50 (MALME-3M)?
A: 316 nM

Q: And the GI50 (UACC-62)?
A: 400 nM

Q: And the GI50 (RXF 393)?
A: 222 nM

Q: What about the GI50 (SW-620) of the same compound?
A: 299 nM

Q: And the IC50 (PGA-1 cells)?
A: 870 nM

Q: What about the viability at 1 µM (PGA-1 cells; read-out: cell viability) of the same compound?
A: 25%

Q: What about the viability at 10 µM (PGA-1 cells; read-out: cell viability) of the same compound?
A: 7%

Q: What about the GI50 (K-562; Homo sapiens, K562, K-562) of the same compound?
A: 290 nM

Q: And the GI50 (K-562; K-562)?
A: 293 nM

Q: And the GI50 (melanoma cell lines)?
A: 194 to 1080 nM

Q: What about the GI50 ([2]; heatmap Figure 8, concentration in molar, read-out: Log 10 GI-50 Mean (converted)) of the same compound?
A: 389 nM

Q: And the IC50 ([2]; heatmap Figure 8, concentration in molar, read-out: Log 10 IC-50 Mean (converted))?
A: 741 nM

Q: And the CC50 ([2]; heatmap Figure 8, concentration in molar, read-out: Log 10 LC-50 Mean (converted))?
A: 41700 nM

Q: What about the GI50 ([2]; mean over NCI 60 cell line panel, read-out: Mean GI50 (MID GI50, full-panel mean-graph mid-point)) of the same compound?
A: 245 nM

Q: And the CC50 ([2]; mean over NCI 60 cell line panel, read-out: Mean LC50 (MID LC50))?
A: 18600 nM
